Measurements: EP1884243A1, “Use of an antipsychotic drug for the treatment of ALS-associated cachexia” (Charité - Universitätsmedizin Berlin, priority 2006, dated 2008)

Columns and labels:
ALS-related cachexia [1] = experiment: Study 2: olanzapine treatment of ALS-related cachexia, case report of a patient; format: in vivo, human being
Description: A patient is reported, who developed a slowly-progressive motor neuron syndrome. The patient fulfilled the criteria for ALS. The disease began with atrophy and weakness of the small muscles of the right hand followed by weakness of the proximal muscles of right arm and the opposite upper limb. In the course of 4 years after onset they experienced progressive atrophy and flaccid paresis of the lower limbs resulting in a gait disorder. […] The patient was without dysphagia.
During the course of 12 months, the patient developed an unintended weight loss of 8.5 kg of body weight. The weight loss was associated with fatigue. The patient suffered from diminished appetite. The body mass index (BMI) reduced from 23.3 kg/ m^2 to 20.5 kg/m^2. At the same time the ALS functional rating scale (ALS-FRS revised) changed from 43 to 39 units. Most of the wasting occurred within 6 month before intervention (loss of 6.5 kg of body weight; total body weight of 61.5 kg). For the pharmacological intervention of ALS-related cachexia the medication with olanzapine was initiated. Olanzapine was given orally in the dosage of 5 mg per day. Olanzapine was administered once daily using one tablet of olanzapine 5 mg in the evening. The medication attenuated ALS-related cachexia and wasting. After 2 month of olanzapine treatment the body weight was stabilized (61.0 kg). The loss of BMI was also attenuated (20.3 kg/m^2). […] Residual motor functions were mobilized. […] At the time of this report, the olanzapine dosage was increased to 10 mg per day. Olanzapine was administered twice daily using one tablet of olanzapine 5 mg each in the morning and in the evening. […] The olanzapine treatment was ongoing. Based on reports on olanzapine-related weight gain in patients with psychosis, the target dose of olanzapine for the treatment of ALS-cachexia is 20 mg per day. In the case of persistent ALS-related weight loss, the treatment with 30 mg olanzapine per day is recommended.

ALS-related cachexia [2] = experiment: Study 3: olanzapine treatment of ALS-related cachexia, case report of a patient; format: in vivo, human being
Description: A patient is reported, who developed a slowly-progressive motor neuron syndrome. The patient fulfilled the criteria for ALS. The disease began with atrophy and weakness of the proximal left arm followed by weakness of the distal muscles of left upper limb. In the course of 2 years after onset they experienced progressive atrophy and flaccid paresis of the opposite limb with only residual functions in handling articles. After 3 years the disorder progressed to the point that was complete loss of manual functions. The patient developed hypoventilation resulting in ventilatory support using non-invasive intermittent positive pressure ventilation (NIPPV). The patient was without dysphagia.
During the course of 9 months, the patient developed an unintended weight loss of 14.5 kg of body weight. The weight loss was associated with fatigue. The patient suffered from diminished appetite. The body mass index (BMI) reduced from 23.0 kg/ m^2 to 17.5 kg/m^2. Most of the wasting occurred within 5 month before intervention (loss of 8.5 kg of body weight; total body weight reduced from 55 kg to 46.5 kg). For the pharmacological intervention of ALS-related cachexia the medication with olanzapine was initiated. Olanzapine was given orally in the dosage of 5 mg per day. Olanzapine was administered once daily using one tablet of olanzapine 5 mg in the evening. After 4 weeks of treatment, olanzapine dosage was increased to 10 mg per day. Olanzapine was administered twice daily using one tablet of olanzapine 5 mg each in the morning and in the evening. The medication attenuated ALS-related cachexia and wasting. After 2 month of olanzapine treatment the body weight was stabilized (45.5 kg). The loss of BMI was also attenuated (17.1 kg/m^2). The nutritional state and the general strength improved. […] The olanzapine treatment was ongoing. Based on reports on olanzapine-related weight gain in patients with psychosis, the target dose of olanzapine for the treatment of ALS-cachexia is 20 mg per day. In the case of persistent ALS-related weight loss, the treatment with 30 mg olanzapine per day is recommended.

ALS-related cachexia [3] = experiment: Study: olanzapine treatment of ALS-related cachexia, case report of a patient; format: in vivo, human being
Description: A patient is reported, who developed a slowly-progressive motor neuron syndrome. The patient fulfilled the criteria for definite ALS. The disease began with atrophy and weakness of the small muscles of the left hand followed by weakness of the right distal arm. In the course of 2 years after onset they experienced slowly progressive atrophy and flaccid paresis of the upper limbs with only residual functions in handling articles. After 4 years they developed a gait disorder which progressed to the point were they required a walking-aid. […] The patient was without dysphagia.
During the course of 10 months, the patient developed an unintended weight loss of 12 kg of body weight resulting in fatigue and reduced mobility. The patient suffered from diminished appetite. The body mass index (BMI) was 17.2 kg/m^2 and fulfilled the diagnostic criteria of cachexia. For the pharmacological intervention of ALS-related cachexia the medication with olanzapine was initiated. Olanzapine was given orally in the dosage of 5 mg per day. Olanzapine was administered twice daily using one tablet of olanzapine 2.5 mg each in the morning and in the evening. […] The BMI increased to 18,8 kg/m^2. […] Residual motor functions were mobilized. […] At the time of this report, the olanzapine treatment was ongoing.

ALS = ALS patients; background statement on the approved therapy; cited from earlier work

Row | Compound | BMI (ALS-related cachexia [1]; after 2 month of olanzapine 5 mg per day orally, BMI 20.5 kg/m^2 before intervention) [kg/m^2] | body weight (ALS-related cachexia [1]; after 2 month of olanzapine 5 mg per day orally, total body weight 61.5 kg before intervention) [kg] | adverse events (ALS-related cachexia [1]; olanzapine orally 5 mg per day, later increased to 10 mg per day) | body weight (ALS-related cachexia [2]; after 2 month of olanzapine (5 mg per day, after 4 weeks 10 mg per day, orally), 46.5 kg before intervention) [kg] | BMI (ALS-related cachexia [2]; after 2 month of olanzapine (5 mg per day, after 4 weeks 10 mg per day, orally), BMI 17.5 kg/m^2 before intervention) [kg/m^2] | adverse events (ALS-related cachexia [2]; olanzapine orally 5 mg per day, after 4 weeks 10 mg per day) | adverse events (ALS-related cachexia [3]; olanzapine orally 5 mg per day) | weight gain (ALS-related cachexia [3]; olanzapine orally 5 mg per day (2.5 mg twice daily), within the course of 8 weeks, patient, BMI 17.2 kg/m^2 before treatment) [kg] | BMI (ALS-related cachexia [3]; olanzapine orally 5 mg per day, after treatment (8 weeks), BMI before treatment 17.2 kg/m^2) | prolonging an ALS-patient's lifetime (ALS)
1 | Cc1cc2c(s1)Nc1ccccc1N=C2N1CCN(C)CC1 [olanzapine] | 20.3 | 61.0 | not associated with adverse events | 45.5 | 17.1 | not associated with adverse events | not associated with adverse events | 6 | 18,8 kg/m^2 | –
2 | Nc1nc2ccc(OC(F)(F)F)cc2s1 [Riluzole] | – | – | – | – | – | – | – | – | – | 1.5-2.5 months
